Experimental data: patent US5462956A, “Epibatidine and derivatives, compositions and methods of treating pain” (priority 1994, dated 1995)
pIC50: −log10 of the molar value.

Assays:
mice = test system: mice
Method: The Straub-tail reaction was assayed by a standard procedure [Aceto, M. D., et. al., Brit. J. Pharmacol. 36, 225-239, 1969].

[1] = Nilsen assay of analgetic activity; settings: in vivo
NIH mice = assay: hot plate analgesia assay (Eddy and Leimbach), with and without naloxone; assay type: in vivo, mouse; settings: for ED50 Dose for Hot Plate Analgesia: mice, sc, hot plate 55° C., reaction times over 60 min
Method: 107, 385-393, 1953]. NIH mice were dropped onto a hot plate maintained at 55° C. and the reaction time was determined. The criterion for a reaction was kicking the hind leg, attempting to jump out, or shaking a foot and turning and licking it. Reaction time for each mouse was determined at least twice before and 5, 10, 20, 30, 45 and 60 min after administration of compound.

opioid-binding sites = opioid-binding sites (Cavia porcellus, UniProt A0ACM8Q262); settings: 1 nM [3H]dihydromorphine, guinea pig cerebral tissue
Method: Briefly, cerebral tissue from brains of male Hartley guinea pigs was homogenized in 10 volumes of ice-cold 50 mM Tris-HCl buffer (pH 7.4) for 20 sec. in a Polytron homogenizer at 3000 rpm. After centrifugation at 18,000 G for 10 min., the pellet was reconstructed to the same volume in Tris buffer. […] Samples were chilled to 0° and filtered through glass fiber filters, followed by two washes with 5 ml of ice cold Tris buffer. Radioactivity retained on the filter was determined with a liquid scintillation counter. Nonspecific binding of [^3 H]dihydromorphine was determined in the presence of 100 nM naloxone.

[2] = test system: dihydromorphine binding sites; assay: binding to dihydromorphine binding sites in rodent brain membranes (background statement)

Sequence of opioid-binding sites (A0ACM8Q262 1-400): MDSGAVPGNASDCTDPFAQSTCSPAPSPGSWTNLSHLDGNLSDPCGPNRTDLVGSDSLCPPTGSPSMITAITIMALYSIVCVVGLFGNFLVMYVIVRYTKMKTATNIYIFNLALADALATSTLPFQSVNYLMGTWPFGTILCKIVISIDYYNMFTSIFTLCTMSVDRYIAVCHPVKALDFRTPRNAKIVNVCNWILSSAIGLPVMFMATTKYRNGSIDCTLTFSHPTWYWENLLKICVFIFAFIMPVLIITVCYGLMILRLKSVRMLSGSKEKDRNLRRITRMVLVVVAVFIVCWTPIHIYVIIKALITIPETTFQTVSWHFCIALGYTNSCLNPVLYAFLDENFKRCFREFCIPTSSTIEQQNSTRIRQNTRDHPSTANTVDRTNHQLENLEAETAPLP

Q: Which “Straub-tail reaction elicited by isolated alkaloid” value (mice; column fractions 108-111, mice) does the source give for `Clc1ccc(C2CC3CCC2N3)cn1` (stereo not drawn) [Epibatidine] here?
A: elicited the Straub-tail reaction in mice

Q: And the Straub-tail response (mice; mice, at higher doses for epibatidine (background statement))?
A: marked Straub-tail response

Q: What about the “dose that elicited a comparable Straub-tail reaction” value (mice; mouse, in vivo) of the same compound?
A: 0.02 mg/kg

Q: What about the “effect of naloxone on the Straub-tail reaction” value (mice; mouse, in vivo) of the same compound?
A: only slightly reduced the Straub-tail reaction

Q: What about the “blockade of the Straub-tail response by naloxone (background statement)” value (mice; opioid-antagonist naloxone) of the same compound?
A: not blocked

Q: What about the “Analgetic activity in the Nilsen assay” value [1] of the same compound?
A: Analgetic activity also was apparent

Q: What about the “ED50 Dose for Hot Plate Analgesia” value (NIH mice) of the same compound?
A: 0.005 mg/kg

Q: And the “antagonism of the analgesia by the opioid antagonist naloxone (background statement)” value (NIH mice; naloxone)?
A: not antagonized

Q: And the “Effect of Naloxone (on analgesia)” value (NIH mice; naloxone 5 mg/kg sc)?
A: No effect

Q: What about the “potency relative to morphine in a standard analgetic test” value (NIH mice; subcutaneously to mice) of the same compound?
A: two-hundred fold more potent than morphine

Q: What about the “activity at opioid-binding sites in words” value (opioid-binding sites) of the same compound?
A: nearly inactive

Q: And the pIC50 (opioid-binding sites; 30 min, 25°, pH 7.4)?
A: 5.06

Q: What about the “affinity for dihydromorphine binding sites” value [2] of the same compound?
A: very low affinity

Q: Which “dose required for a greater than 45° arch of tail (Straub-tail reaction)” value (mice; mouse, in vivo, sc) does the source give for `CN1CC[C@]23c4c5ccc(O)c4O[C@H]2[C@@H](O)C=C[C@H]3[C@H]1C5` [Morphine, reference compound] here?
A: 10 mg/kg

Q: And the “ED50 Dose for Hot Plate Analgesia” value (NIH mice)?
A: 1 mg/kg
